For assay [1], the system named is Mycobacterium tuberculosis. Put plainly: Antimycobacterial activity against Mycobacterium tuberculosis expressing GFP. It is filed as functional.
In assay [2] the test system is Mycobacterium tuberculosis. As to the kind of experiment: Antimycobacterial activity against Mycobacterium tuberculosis H37Rv by MABA assay. It is filed as functional. For orientation: Resazurin is reduced to fluorescent resorufin, in cell work by metabolically active cells.
Assay [3] deals with Mycobacterium tuberculosis. Put plainly: Antimycobacterial activity against drug-sensitive Mycobacterium tuberculosis. It is filed as functional.
For assay [4], the system named is Mycobacterium tuberculosis. As to the kind of experiment: Antimycobacterial activity against Mycobacterium tuberculosis. It is filed as functional.
Assay [5] has as its system Mycobacterium tuberculosis. Put plainly: Antimycobacterial activity against Mycobacterium tuberculosis H37Rv by microplate alamar blue assay. It is filed as functional.
Assay [6] has as its system Mycobacterium tuberculosis. As to the kind of experiment: Antimycobacterial activity against Mycobacterium tuberculosis H37Rv by agar dilution method. It is filed as functional. A general note: In agar dilution, organisms are placed on agar that contains the substance at set levels.
The test system of assay [7] is Mycobacterium tuberculosis. As to the kind of experiment: Antimycobacterial activity against drug-susceptible Mycobacterium tuberculosis H37Rv. It is filed as functional.
Assay [8] relates to Mycobacterium tuberculosis. As to the kind of experiment: Antimycobacterial activity against Mycobacterium tuberculosis infected in mouse. It is filed as functional.
Assay [9] in a line: Inhibition of mammalian mitochondrial protein synthesis. It is filed as mitochondria, Mitochondria.
Assay [10] deals with Mycobacterium tuberculosis. Put plainly: Antimycobacterial activity against non-replicating Mycobacterium tuberculosis H37Rv by time kill kinetic assay. It is filed as functional.

Each structure is given as a SMILES string. ≈ marks a conversion by molar mass, not a printed value.

The text below walks through data of ChEMBL document CHEMBL5126519, “Tuberculosis drug discovery: Progression and future interventions in the wake of emerging resistance” (Eur J Med Chem, 2022).

As a reminder, the MIC is the lowest concentration found to suppress growth. Higher therefore signals weaker potency. The MIC99 is the lowest concentration that inhibits either 99% of growth or 99% of the strains tested, depending on the study. The low end stands for greater potency, the high end for weaker potency. The IC50 is the point on the concentration scale where inhibition reaches its midpoint. A lower IC50 goes with inhibition by little substance.

Consider `COCCNC(=O)c1cn(Cc2ccc(F)cc2)c2ccc([N+](=O)[O-])cc2c1=O`, for which the MIC in assay [1] was less than 0.244 µM.
In assay [2], `Cc1c(C(=O)OCc2ccccc2)[n+]([O-])c2cc(F)c(-n3cncn3)cc2[n+]1[O-]` yielded an MIC of no more than 0.25 µg/mL.
`CCNC(=O)Nc1nc2nc(-c3cnc(C(C)(C)O)nc3)c(F)c([C@H]3CCCO3)c2[nH]1`: 0.03 µg/mL (≈ 0.0699 µM) was the least that counted as inhibitory in assay [3] (MIC).
On to `Cc1cc(/C=C/c2ccc3cc(N(C)C)ccc3[n+]2C)c(C)n1-c1ccccc1.Cc1cc(/C=C/c2ccc3cc(N(C)C)ccc3[n+]2C)c(C)n1-c1ccccc1.O=C(O)c1cc2ccccc2c(Cc2c(O)c(C(=O)O)cc3ccccc23)c1O`, for which the MIC99 in assay [3] is 1.55 µg/mL.
With `O[C@@H](c1cc(C(F)(F)F)nc2c(C(F)(F)F)cccc12)[C@H]1CCCCN1` [(S,R)-MEFLOQUINE], the MIC in assay [4] was found to be 10 µM.
On to `CC(C)(C)NCC(O)CSc1nc(-c2ccc(C(N)=O)s2)cs1` (stereo not drawn) [AROTINOLOL], for which the MIC in assay [5] is 3.12 µM (≈ 1.16 µg/mL).
The molecule `COc1nc2ccc(Br)cc2cc1[C@@H](c1ccccc1)[C@@](O)(CCN(C)C)c1cccc2ccccc12` [BEDAQUILINE] displayed an MIC in assay [6] of 0.015 µg/mL (≈ 0.027 µM).
With `C[C@H]1COC2(CCN(c3nc(=O)c4cc(C(F)(F)F)cc([N+](=O)[O-])c4s3)CC2)O1` [BTZ-043], in [4], the MIC amounted to 0.001 µg/mL.
In the case of `C[C@]1(COc2ccc(N3CCC(Oc4ccc(OC(F)(F)F)cc4)CC3)cc2)Cn2cc([N+](=O)[O-])nc2O1` [DELAMANID], in [7], the MIC worked out at 0.0005 µg/mL (≈ 0.000935 µM).
For the molecule `CC1=NN(c2ccc(C)c(C)c2)C(=O)/C1=N\Nc1cccc(-c2cccc(C(=O)O)c2)c1O` [ELTROMBOPAG], the MIC in [5] stood at 6.25 µM (≈ 2.77 µg/mL).
With `NC[C@H]1OB(O)c2c(OCCO)ccc(Cl)c21` [GANFEBOROLE], the ED99 in assay [8] amounted to 0.4 mg/kg. This molecule also showed an MIC in assay [2] of 0.08 µM.
`CN(C)[C@@H]1C(O)=C(C(=O)NCNCCCC[C@H](N)C(=O)O)C(=O)[C@@]2(O)C(O)=C3C(=O)c4c(O)cccc4[C@@](C)(O)[C@H]3C[C@@H]12` [LYMECYCLINE] showed an MIC in [4] of 166 µM.
The same measure, in the same setting: next, `O=c1nc(N2CCN(CC3CCCCC3)CC2)sc2c([N+](=O)[O-])cc(C(F)(F)F)cc12` [MACOZINONE]: 0.00019 µg/mL; `COc1c(N2C[C@@H]3CCCN[C@@H]3C2)c(F)cc2c(=O)c(C(=O)O)cn(C3CC3)c12` [MOXIFLOXACIN]: 1.1 µM.
For the molecule `CC(=O)Oc1ccccc1C(=O)Nc1ncc([N+](=O)[O-])s1` [NITAZOXANIDE], the lowest concentration to inhibit growth in assay [4] (MIC) was 33.2 µM. Against the preceding molecule, the MIC is about 30-fold higher.
Molecule `O=[N+]([O-])c1cn2c(n1)OC[C@@H](OCc1ccc(OC(F)(F)F)cc1)C2` [PRETOMANID] registered an MIC in assay [3] of 0.015 µg/mL (≈ 0.0418 µM).
In turn, `CC(C)=CCC/C(C)=C/CNCCNC1C2CC3CC(C2)CC1C3` (stereo not drawn) [SQ109] showed an MIC in [4] of 0.78 µg/mL.
Same read-out and setting: next, `CC(=O)NC[C@H]1CN(c2ccc(N3CCSCC3)c(F)c2)C(=O)O1` [SUTEZOLID]: 0.062 µg/mL.
As for `COC(=O)NC[C@H]1CN(c2ccc(N3CC4(COC4)C3)c(F)c2)C(=O)O1` [TBI-223], the IC50 in [9] was greater than 74 µM.
`CCc1nc2ccc(Cl)cn2c1C(=O)NCc1ccc(N2CCC(c3ccc(OC(F)(F)F)cc3)CC2)cc1` [TELACEBEC] showed an MIC in assay [4] of 0.008 µg/mL.
`CSc1ccc2c(c1)N(CCC1CCCCN1C)c1ccccc1S2` (stereo not drawn) [THIORIDAZINE]: the MIC in assay [4] is 19.6 µM.
In assay [10], `COc1ccc(CCN(C)CCCC(C#N)(c2ccc(OC)c(OC)c2)C(C)C)cc1OC` (stereo not drawn) [VERAPAMIL] registered an MIC of 512 µM (≈ 233 µg/mL).
